In US20230257700A1, “FUNCTIONAL HUMAN CORNEAL ENDOTHELIAL CELLS AND APPLICATION THEREOF” (KYOTO PREFECTURAL PUBLIC UNIVERSITY CORPORATION, priority 2020, published 2023):

How the values were obtained:
[1] = tested on: cultured human corneal endothelial cells; assay: FACS cell surface CD antigens and phase-contrast morphology of cultured HCEC (standard cell ratio); type: cell-based
Procedure: Culture with 0+Y, SB2, EGF, Asc (ascorbic acid) ↓ P1 Culture with +Y, SB2, EGF, Asc ↓ P2 Culture in 4 ways with EGF(−), 0.5 ng/mL, 1 ng/mL, 5 ng/mL (+Y, SB2, Asc) ↓ Passage from each condition in P2 P3 Culture in 4 ways with EGF(−), 0.5 ng/mL, 1 ng/mL, 5 ng/mL (+Y, SB2, Asc) ↓ Passage from each condition in P3 P4 Culture in 4 ways with EGF(−), 0.5 ng/mL, 1 ng/mL, 5 ng/mL (+Y, SB2, Asc) *Trypsin (TrypLE, ThermoFisher) concentration ×10 at the time of detachment, seeding cell number ECD800 (In the above, P indicates the number of passages.)
P0 Culture two eyes collectively in 2 ways with EGF(−), 0.5 ng/mL (+Y, SB2, Asc) ↓ Passage from each condition in P0 P1 Culture in two ways with EGF(−), 0.5 ng/mL (+Y, SB2, Asc) ↓ Passage from each condition in P1 P2 Culture in two ways with EGF(−), 0.5 ng/mL (+Y, SB2, Asc) TrypLE concentration ×10 at the time of detachment, at seeding ECD800
(§1) As to culture conditions, the Y addition timing is examined at P1 and P2 in #190719, and the Y addition timing is examined at P1 in #190802.
(§2) Using P4 of #190719, the culture supernatant was collected at 1 to 5 w to examine the difference in accordance with the presence or absence of the ROCK inhibitor. Donor information was as follows: #190719S/D, AEB-301, OSCN/ODCN, ECD=3448/3289, COD: Bleomycin Lung Toxicity 2/2 ChemoTreatments, D-P=11:28, D-C=8D.
For FACS analysis, 16×10^4 cells (one type of antibody+negative control) were dispensed into Proteosave tubes and the rest were passaged. FACS required 8×10^4 cells per antibody type. Passages were seeded at an Endothelial Cell Density (ECD: cells/mm^2) of 400 (191001 time point) (24-well: 7.6×10^4 cells, 12-well: 15.2×10^4 cells, 6-well: 38×10^4 cells, T-25: 100×10^4 cells).
The FACS was started up, and an antibody solution (hereinafter light-shielded, on ice) was prepared as follows. antigen fluorescent dye Volume (μL)×sample type plus something extra (μL)
The cell suspension was centrifuged at 250×g (1,800 rpm) for 2 minutes at 4° C., the supernatant was removed using P-200, the concentration was adjusted to 4×10^6 cells/mL and suspended in FACS Buffer (+NaN3). When the suspension was less than 30 μL, it was suspended in 30 μL and 20 μL was used for the reaction and 10 μL for NC.
Twenty μL of the antibody solution and 20 μL of the suspension were mixed well by pipetting, and the tube was wrapped in aluminum to shield from light and rotated at 4° C. for 2 hours (up to 4 hours maximum) on a rotator. Centrifugation was performed at 250×g (1,800 rpm) for 2 minutes at 4° C., the supernatant was discarded, followed by washing with 100 μL of FACS Buffer (+NaN3). Centrifugation was performed at 250×g (1,800 rpm) for 2 minutes at 4° C., the supernatant was discarded, followed by suspending in 350 μL of FACS buffer (−NaN3), and transferring through a cell strainer to a 5-mL tube. NCs were suspended in FACS Buffer (−NaN3) to a total of 350 μL of the rest of the initial suspension, and transferred to a 5-mL tube through a cell strainer. During the FACS measurement, the sample was kept light-shielded and on ice, the FACS laser value and target cell range were determined, and a file was created (to follow: Open Book→Open Syringe→Green→Cytometer tab: Laser→Area scaling for HCEC label: FSC 0.5/Blue 0.75/Red 0.80). The NC was set to SIT and allowed to run briefly (Flow rate: set to medium, Acquire data 5 seconds→Remove sample from SIT and put on ice) to check the fluorescence parameter graph and target cell range. […]

[2] = tested on: mitochondrial respiration (OXPHOS) of HCEC; assay: mitochondrial respiratory capacity of cHCEC; type: cell-based, human; conditions: HCEC passages 2-5
Description: As used herein, “mitochondria dependent oxidative phosphorylation” is also called “mitochondria OXPHOS” and refers to a reaction of oxidative phosphorylation that depends on respiratory activity. As to the reaction associated with “mitochondria OXPHOS”, a extracellular flux analyzer, which analyzes the state of intracellular metabolism, can measure the oxygen consumption rate (OCR), which is an index of OXPHOS activity, the extracellular acidification rate (ECAR), which is an index of glycolytic activity.
Corneal endothelial cells (HCEC) were obtained from donor corneas provided by SightLife (Seattle, Wash., USA), and the HCEC were cultured according to a published protocol (Toda M, Ueno M, et al. Invest Ophthalmol Vis Sci. 2017; 58:2011) with some modifications. HCEC of passages 2-5 were used for all experiments. SPs containing CST were passaged at low cell density. The SPs of cHCEC were identified by cell surface markers (CD24, 44, 105, 166) using phase-contrast microscopy images and flow cytometry.

[3] = tested on: miR184; assay: intracellular miR184 expression by qRT-PCR; type: cell-based, human; conditions: with/without EGF, with/without Y27632
Description: (§3) Y27632 was used as a ROCK inhibitor.
(§4) Culture conditions conform to Examples 1 and 2.
(§5) The results of miR184, miR34, miR378, and miR146 gene expression variations in the presence or absence of EGF and in the presence or absence of Y by qRT-PCR are shown in FIGS. 17 and 18.

[4] = tested on: miR34a-5p; assay: intracellular miR34a-5p expression by qRT-PCR; type: cell-based, human; conditions: with/without EGF, with/without Y27632
Description: as §3, §4, §5

[5] = tested on: cultured human corneal endothelial cells CT09; assay: effects of additives, lot CT09 P5 (photographs, FACS, ELISA); type: cell-based; conditions: CT09 P5, conditions 1 to 5, Day 34 FACS, PDGF-bb and IL-8 1st to 5th week
Description: (§6) Lot CT09 P5 was used to assay the effects of additives to evaluate the product in a SB2-new culture method. First, using CT09 P4 (remaining cells for FBS lot assay), the culture supernatant was collected the day before the passage (Day 42), and then the CT09 P5 was passaged with ECD400 (181219), followed by culturing in Nancy medium (FBS #1652794, containing ascorbic acid) under conditions 1 to 5 shown in FIG. 23 (2 wells for each 6-well plate). From the 1st week to the 5th week, the culture supernatant was collected, one well was subjected to FACS measurement on Day 34 (190122), and the culture supernatant was measured for IL-8 and PDGF-bb by ELISA.

[6] = tested on: cultured endothelial cells; assay: measurement of metabolites in culture supernatant (CE-TOFMS, CE-MS/MS); type: cell-based, human
Procedure: In this Example, differences between the metabolite properties of functional human corneal endothelial cells and the metabolite properties of non-intended cells were confirmed.
For measurement of metabolites in culture supernatant (CS), an 80 μL Milli-Q (Merck1 KGaA, Darmstadt, Germany) containing 20 μL of CS and internal standard solution 1 (H3304-1002; Human Metabolome Technologies, Inc., Yamagata, Japan), was thoroughly mixed. Cationic compounds were measured by CE time-of-flight mass spectrometry (CE-TOFMS) in positive mode, and anionic compounds were measured by CE tandem MS (CE-MS/MS) in positive and negative modes. Hierarchical cluster analysis (HCA) was performed using the proprietary software “PeakStat”. Differences in values were analyzed statistically using Student's t-test or one-way analysis of variance (ANOVA) with Bonferroni's post hoc test (GraphPadPrism 6.0, GraphPad software). A p-value of <0.05 was considered statistically significant.
The effect of adding a ROCK inhibitor was determined according to Example 3.

[7] = tested on: IL-8; assay: ELISA IL-8 in culture supernatant; type: cell-based, human
Description: as §6, §1, §2

[8] = tested on: PDGF-bb; assay: ELISA PDGF-bb in culture supernatant; type: cell-based, human; conditions: for PDGF-bb in culture supernatant (weekly): #190719 P1 and P2, #190318
Description: as §6, §1, §2

[9] = tested on: human corneal endothelial cells (donor AEM-510); assay: adhesion enhancement at P0 with or without Y addition; type: cell-based
Procedure: Next, ROCK inhibitors were tested for adhesion enhancement. In order to investigate whether the enhancement of adhesion by the ROCK inhibitor is related to standard cell manufacture, cells cultured under the following conditions were compared and verified at P0 with or without Y addition.
AEM-510 (person), ECD ODCN: 3058, and OSCN: 3058 were used, which were stored at 4° C. on January 30th, corneal treatment was performed on January 31st at 10:00, OD collagenase treatment was started at 10:45, and OS collagenase treatment was started at 11:05. Thereafter, seeding was started at 14:45 and cultured with Y−, A (ascorbic acid)+for OD and Y+, A+ for OS. At 10:00 on February 4, the medium was replaced, and both eyes: Y+, A+ were photographed (phase contrast ×4, ×10).

[10] = tested on: IL-6, IL-8 and MIP-1b; assay: cytokine measurement (BioPlex) in culture supernatant; type: cell-based, human; conditions: #190318
[11] = #190719 P4, ROCK inhibitor added at the start of the culture for 3 days
[12] = #190719 P1 and P2, ROCK inhibitor added 10 days after the start of culture

In the case of “EGF: epidermal growth factor, a type of cell growth factor”, the “ratio of corneal endothelial cells of the present disclosure (FACS)” value ([1]; EGF (−) or 0.5 ng/mL from primary culture, P0 to P2, donor #214) is reported as “increases when EGF is not added”, the “cell shape under microscopy and cell surface CD antigen trait” value ([1]; EGF (−), 0.5, 1, 5 ng/mL, passages P2 to P4, donor #202) is reported as “no addition of EGF was desirable at any passage from P2 to P4” and the standard cell ratio ([1]; EGF addition, HCEC passages 2-5) is reported as “lowers the standard cell ratio”. For the same compound, the “mitochondrial respiratory capacity and oxidative phosphorylation (OXPHOS)” value [2] was “reduces mitochondrial respiratory capacity and oxidative phosphorylation (OXPHOS)”, the miR184 expression level [3] was “increases with no EGF addition than with EGF addition” and the miR34a-5p expression level [4] was “increases with no EGF addition than with EGF addition”. For the same compound, the “desirable additive condition (overall effects of the additives)” value (“desirable additive condition” below) [5] was “no addition of EGF”, the “Lactic Acid and L/P (lactic acid/pyruvic acid) ratio; anaerobic glycolytic activity” value [6] was “non-intended cell profile with high anaerobic glycolytic activity due to the addition of EGF” and the “metabolite profile of cultured endothelial cells” value ([6]; EGF added) was “showed a non-intended cell profile by adding EGF”. For the same compound, the “amount of branched chain amino acids (Ile, Leu) produced” value ([6]; amount of EGF added varied) was “decreased when the amount of EGF added was reduced”.
With `NC(=O)c1ccc(-c2nc(-c3ccc4c(c3)OCO4)c(-c3ccccn3)[nH]2)cc1` [SB4] the “desirable additive condition” value [5] was “addition of SB4”.
For `C[C@@H](N)[C@H]1CC[C@H](C(=O)Nc2ccncc2)CC1.Cl.Cl.O` (relative stereo) [Y27632, (R)-(+)-trans-(4-pyridyl)-4-(1-aminoethyl)-cyclohexanecarboxamide dehydrochloride monohydrate], the “mature standard cells by FACS” value [1, 11] was “no mature standard cells were detected by FACS”, the “ratio of standard cells (FACS)” value ([1]; ROCK inhibitor added on the 10th day after the start of culture, #190719, #190802, #190318) was “higher ratio of standard cells in all of the three experiments” and the “IL-8 in culture supernatant” value [7, 12] was “lowest from differentiation to the maturation stage”. The “IL-8 in culture supernatant” value [7, 11] was “higher than the standard”, the “PDGF-bb in culture supernatant (weekly)” value [8] was “high PDGF levels and slightly low levels in the P1 growth phase” and the “PDGF-bb in culture supernatant (for each item)” value [8, 12] was “increased from differentiation to maturation”. For the same compound, the “PDGF-bb in culture supernatant” value [8, 11] was “at a low level and does not satisfy the standard values”, the “PDGF-bb in culture supernatant” value ([8]; #190802) was “increased dependently on differentiation and induction by a ROCK inhibitor” and the miR184 expression level [3] was “increases with the addition of the ROCK inhibitor”. The miR34a-5p expression level [4] was “increases with the addition of the ROCK inhibitor”, the “desirable additive condition” value [5] was “addition of Y from Day 10” and the “adhesion to the incubator after seeding” value ([9]; P0, Y+ vs Y−) was “promoted the adhesion to the incubator after seeding the cells”. For the same compound, the “difference between cultures on the 14th day” value ([9]; Y27632 added for the first time after the 4th day vs from seeding) was “no difference was observed on the 14th day of culture”.
In the case of `C[S+]([O-])c1ccc(-c2nc(-c3ccncc3)c(-c3ccc(F)cc3)[nH]2)cc1` (stereo not drawn) [SB203580], the “IL-8 in culture supernatant (weekly)” value ([7]; #190318) is reported as “varies almost depending on the presence or absence of SB2”, the “IL-8 in culture supernatant” value ([7]; #190802) is reported as “decreased dependently on a p38 MAPK inhibitor” and the “PDGF-bb in culture supernatant (for each item)” value ([8]; #190318, SB2 not added) is reported as “high PDGF levels at 3 w”. For the same compound, the “PDGF-bb in culture supernatant (weekly)” value [8] was “little relation to the presence or absence of SB203580”, the “IL-6, IL-8 and MIP-1b in culture supernatant (BioPlex)” value [10] was “dependent on the p38 MAPK inhibitor” and the “desirable additive condition” value [5] was “no addition of SB2 or the addition thereof only at the final stage of culture”.
